These compounds were tested against T1, human DLK (Homo sapiens, UniProt Q12852) (assay: DLK Kd Determinations (KINOMEscan KdELECT, DiscoveRx)). Conditions: fusion protein of full length human DLK (amino acids 1-859) and NFkB DNA binding domain; qPCR readout; duplicate.
T1 sequence (Q12852 1-859): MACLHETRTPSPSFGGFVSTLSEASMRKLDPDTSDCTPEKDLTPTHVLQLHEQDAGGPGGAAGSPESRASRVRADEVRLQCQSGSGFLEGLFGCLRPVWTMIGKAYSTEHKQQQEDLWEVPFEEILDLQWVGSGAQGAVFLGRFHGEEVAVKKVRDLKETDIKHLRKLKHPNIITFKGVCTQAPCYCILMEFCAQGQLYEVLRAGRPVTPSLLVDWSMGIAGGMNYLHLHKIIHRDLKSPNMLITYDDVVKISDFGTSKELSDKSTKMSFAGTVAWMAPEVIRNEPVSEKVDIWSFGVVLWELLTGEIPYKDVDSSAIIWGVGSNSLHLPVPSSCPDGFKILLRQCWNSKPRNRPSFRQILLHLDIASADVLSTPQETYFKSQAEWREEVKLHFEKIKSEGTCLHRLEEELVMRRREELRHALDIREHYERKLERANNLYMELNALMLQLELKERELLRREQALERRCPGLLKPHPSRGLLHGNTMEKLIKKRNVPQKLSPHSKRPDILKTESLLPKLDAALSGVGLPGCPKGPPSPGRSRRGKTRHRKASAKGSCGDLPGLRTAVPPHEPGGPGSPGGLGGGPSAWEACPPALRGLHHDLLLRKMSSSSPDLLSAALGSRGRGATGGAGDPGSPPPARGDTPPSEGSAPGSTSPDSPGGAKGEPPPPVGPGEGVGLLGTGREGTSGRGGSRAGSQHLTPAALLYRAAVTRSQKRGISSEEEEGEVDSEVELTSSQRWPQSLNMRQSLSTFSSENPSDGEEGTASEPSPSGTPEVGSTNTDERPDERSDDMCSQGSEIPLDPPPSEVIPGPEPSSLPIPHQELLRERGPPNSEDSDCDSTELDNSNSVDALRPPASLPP
Design: full length of human DLK (amino acids 1-859); host or cells: transiently transfected HEK293 cells; unpurified extract
Description: The DLK dissociation constants (Kd) have been determined in the KINOMEscan KdELECT Service at DiscoveRx.
A fusion protein of full length of human DLK (amino acids 1-859) and the DNA binding domain of NFkB was expressed in transiently transfected HEK293 cells. From these HEK 293 cells, extracts were prepared in M-PER extraction buffer (Pierce) in the presence of Protease Inhibitor Cocktail Complete (Roche) and Phosphatase Inhibitor Cocktail Set II (Merck) per manufacturers' instructions. The DLK fusion protein was labeled with a chimeric double-stranded DNA tag containing the NFkB binding site (5′-GGGAATTCCC-3′) fused to an amplicon for qPCR readout, which was added directly to the expression extract (the final concentration of DNA-tag in the binding reaction is 0.1 nM).
Streptavidin-coated magnetic beads (Dynal M280) were treated with a biotinylated small molecule ligand for 30 minutes at room temperature to generate affinity resins the binding assays. The liganded beads were blocked with excess biotin and washed with blocking buffer (SeaBlock (Pierce), 1% BSA, 0.05% Tween 20, 1 mM DTT) to remove unbound ligand and to reduce nonspecific binding.
Extracts were used directly in binding assays without any enzyme purification steps at a ≧10,000-fold overall stock dilution (final DNA-tagged enzyme concentration <0.1 nM). Extracts were loaded with DNA-tag and diluted into the binding reaction in a two step process. First extracts were diluted 1:100 in 1× binding buffer (PBS/0.05% Tween 20/10 mM DTT/0.1% BSA/2 μg/ml sonicated salmon sperm DNA) containing 10 nM DNA-tag. This dilution was allowed to equilibrate at room temperature for 15 minutes and then subsequently diluted 1:100 in 1× binding buffer. Test compounds were prepared as 111× stocks in 100% DMSO. Kds were determined using an 11-point 3-fold compound dilution series with three DMSO control points. All compounds for Kd measurements are distributed by acoustic transfer (non-contact dispensing) in 100% DMSO. The compounds were then diluted directly into the assays such that the final concentration of DMSO was 0.9%. All reactions performed in polypropylene 384-well plates. Each was a final volume of 0.02 mL. Assays were incubated with shaking for 1 hour at room temperature. Then the beads were pelleted and washed with wash buffer (1×PBS, 0.05% Tween 20) to remove displaced kinase and test compound. The washed based were re-suspended in elution buffer (1×PBS, 0.05% Tween 20, 0.5 μM non-biotinylated affinity ligand) and incubated at room temperature with shaking for 30 minutes. The kinase concentration in the eluates was measured by qPCR. qPCR reactions were assembled by adding 2.5 μL of kinase eluate to 7.5 μL of qPCR master mix containing 0.15 μM amplicon primers and 0.15 μM amplicon probe. The qPCR protocol consisted of a 10 minute hot start at 95° C., followed by 35 cycles of 95° C. for 15 seconds, 60° C. for 1 minute.
Test compounds were prepared as 111× stocks in 100% DMSO. Kds were determined using an 11-point 3-fold compound dilution series with three DMSO control points. All compounds for Kd measurements are distributed by acoustic transfer (non-contact dispensing) in 100% DMSO. The compounds were then diluted directly into the assays such that the final concentration of DMSO was 0.9%. The Kds were determined using a compound top concentration of 30,000 nM. Kd measurements were performed in duplicate.
Binding constants (Kds) were calculated with a standard dose-response curve using the Hill equation: […]
The Hill Slope was set to −1. Curves were fitted using a non-linear least square fit with the Levenberg-Marquardt algorithm (Levenberg, K., A method for the solution of certain non-linear problems in least squares, Q. Appl. Math. 2, 164-168 (1944)). See also Fabian, M. A. et al. A small molecule-kinase interaction map for clinical kinase inhibitors. Nat. Biotechnol. […]

Structure (SMILES) | Kd [µM]
CC(C)c1nc(-c2cnc(N)c(C(F)(F)F)c2)cn1C1CC2(COC2)C1 [Example 23, 5-(2-isopropyl-1-(2-oxaspiro[3.3]heptan-6-yl)-1H-imidazol-4-yl)-3-(trifluoromethyl)pyridin-2-amine] | 0.22
CC(C)c1nc(-c2cnc(N)c(C(F)(F)F)c2)cn1[C@H]1[C@@H]2CNC[C@@H]21 [Example 11, 5-(1-(3-azabicyclo[3.1.0]hexan-6-yl)-2-isopropyl-1H-imidazol-4-yl)-3-(trifluoromethyl)pyridin-2-amine] | 0.12
CC(C)c1nc(-c2cnc(N)c(C(F)(F)F)c2)cn1C1CC(N2CCOCC2)C1 (stereo not shown) [Example 37, 5-(2-isopropyl-1-(3-morpholinocyclobutyl)-1H-imidazol-4-yl)-3-(trifluoromethyl)pyridin-2-amine] | 0.092
Nc1ncc(-c2cn([C@H]3[C@@H]4CN(CCF)C[C@@H]43)c(CC(F)(F)F)n2)cc1C(F)(F)F [Example 123, 5-(1-((1R,5S,6s)-3-(2-fluoroethyl)-3-azabicyclo[3.1.0]hexan-6-yl)-2-(2,2,2-trifluoroethyl)-1H-imidazol-4-yl)-3-(trifluoromethyl)pyridin-2-amine] | 0.065
CC(C)n1cc(-c2cnc(N)c(C(F)(F)F)c2)nc1C1CC1 [Example 8, 5-[2-cyclopropyl-1-(propan-2-yl)-1H-imidazol-4-yl]-3-(trifluoromethyl)pyridin-2-amine] | 0.13
Nc1ncc(-c2cn([C@H]3[C@@H]4CN(CC(F)F)C[C@@H]43)c(CC3CC3)n2)cc1C(F)(F)F [Example 61, 5-(2-(cyclopropylmethyl)-1-((1R,5S,6s)-3-(2,2-difluoroethyl)-3-azabicyclo[3.1.0]hexan-6-yl)-1H-imidazol-4-yl)-3-(trifluoromethyl)pyridin-2-amine] | 0.14

Continued by falling Kd, values first:

Kd [µM] | Structure (SMILES)
0.28 | Nc1ncc(-c2cn(C3CC3)c(CC(F)(F)F)n2)cc1C(F)(F)F [Example 46, 5-(1-cyclopropyl-2-(2,2,2-trifluoroethyl)-1H-imidazol-4-yl)-3-(trifluoromethyl)pyridin-2-amine]
0.17 | CC(C)c1nc(-c2cnc(N)c(C(F)(F)F)c2)cn1[C@H]1[C@@H]2CN(CC(F)F)C[C@@H]21 [Example 17, 5-(1-((1R,5S,6s)-3-(2,2-difluoroethyl)-3-azabicyclo[3.1.0]hexan-6-yl)-2-isopropyl-1H-imidazol-4-yl)-3-(trifluoromethyl)pyridin-2-amine]
0.14 | Nc1ncc(-c2cn(CC3CC3)c([C@H]3[C@@H]4CN(C5COC5)C[C@@H]43)n2)cc1C(F)(F)F [Example 1, 5-(1-(cyclopropylmethyl)-2-((1R,5S,6r)-3-(oxetan-3-yl)-3-azabicyclo[3.1.0]hexan-6-yl)-1H-imidazol-4-yl)-3-(trifluoromethyl)pyridin-2-amine]
0.12 | Nc1ncc(-c2cn([C@H]3[C@@H]4CN(C5COC5)C[C@@H]43)c(C3CCCC3)n2)cc1OC(F)F [Example 64, 5-(2-cyclopentyl-1-((1R,5S,6s)-3-(oxetan-3-yl)-3-azabicyclo[3.1.0]hexan-6-yl)-1H-imidazol-4-yl)-3-(difluoromethoxy)pyridin-2-amine]
0.11 | CC(=O)N1C[C@@H]2[C@H](C1)[C@H]2n1cc(-c2cnc(N)c(OC(F)(F)F)c2)nc1C1CC1 [Example 54, 1-((1R,5S)-6-(4-(6-amino-5-(trifluoromethoxy)pyridin-3-yl)-2-cyclopropyl-1H-imidazol-1-yl)-3-azabicyclo[3.1.0]hexan-3-yl)ethan-1-one]
0.094 | CC(C)c1nc(-c2cnc(N)c(OC(F)(F)F)c2)cn1[C@H]1[C@@H]2CNC[C@@H]21 [Example 58, 5-(1-((1R,5S,6s)-3-azabicyclo[3.1.0]hexan-6-yl)-2-isopropyl-1H-imidazol-4-yl)-3-(trifluoromethoxy)pyridin-2-amine]
0.066 | Nc1ncc(-c2cn([C@H]3[C@@H]4CN(C5COC5)C[C@@H]43)c(C3CC3)n2)cc1OC(F)F [Example 104, 5-(2-cyclopropyl-1-((1R,5S,6s)-3-(oxetan-3-yl)-3-azabicyclo[3.1.0]hexan-6-yl)-1H-imidazol-4-yl)-3-(difluoromethoxy)pyridin-2-amine]
